Like-named read-outs stand apart in the source and are kept apart here.
Assay: Example 18 Part 2: multiple dose PK (20 mg QID) of 3,4-DAP and 3-N-acetyl metabolite in slow and fast acetylators
Assay type: in vivo, human
Conditions: for AUC(0-t) / Cmax / Tmax / Vd/F / half-life: both sexes, human, plasma, oral, 20 mg; for Tmax: read-out: Mean Tmax; for Vd/F: read-out: Mean Vz/F; for half-life: read-out: Mean t1/2 (converted)
Procedure: The following method was used to analyze concentrations of 3,4-diaminopyridine and N-(4-aminopyridin-3-yl)acetamide in plasma and urine samples for the experiments in Example 18. In the LC/MS/MS method, the human plasma and urine samples were extracted using acetonitrile containing 0.1% formic acid. Samples were analyzed by using HPLC with positive ion electrospray MS/MS detection. The column was an Atlantis HILIC Silica column (3 μm, 3×50 mm) at a temperature of 40° C. Mobile phase A was water containing ammonium formate (20 mM) and 0.1% formic acid. Mobile phase B was acetonitrile/isopropanol (90/10; v/v) containing 0.1% formic acid. The flow rate was 0.90 mL/minute. The gradient conditions for human plasma and urine samples were as follows:
The LC/MS/MS method was validated to quantify 3,4-DAP in human plasma in the linear calibration range of 0.500 to 500 ng/mL and from 1.00 to 1000 ng/mL for the 3-N-acetyl metabolite.
The primary objective of the study was to assess the safety and tolerability of 3,4-DAP phosphate after single and multiple doses. The secondary objectives of the study were • Part 1 only: To determine the dose-related PK profile of amifampridine and of 3-N-acetyl amifampridine after single, escalating doses of 3,4-DAP phosphate • Part 2 only: To assess the steady-state plasma PK and accumulation of amifampridine and of 3-N-acetyl amifampridine over multiple days of dosing with 3,4-DAP phosphate An exploratory objective was to examine the overall activity of the N-acetyl transferase enzymes on the metabolism of amifampridine by assessing the PK of amifampridine and 3-N-acetyl amifampridine with phenotypic acetylation activity and genotyping determination of NAT2 gene polymorphisms. Study Design and Plan
This open-label study in healthy subjects (male and female) was conducted in 2 parts. A total of 26 healthy male and female subjects, 12 in Part 1 (at least 5 of each sex), 4 in Part 2 Group 1, and 10 in Part 2 Group 2 (at least 4 of each sex) were enrolled into the study. The same subjects were not enrolled to participate in both parts. Subjects in Part 2 were dosed only after all subjects of Part 1 completed dosing and at least 24-hours of follow-up safety evaluation after the last dose were completed.
All subjects were characterized for their metabolic acetylation phenotype and NAT2 genotype in order to divide subjects into two groups of acetylators. Volunteers were genetically typed for highly variant alleles of the N-acetyl transferase 2 enzyme (NAT2) domain on chromosome 8 (according to Example 16) and were phenotyped for acetylation rates with a caffeine challenge test (according to Example 15a). Approximately equal numbers of slow and fast acetylators (as defined by a caffeine challenge test in Example 15a) were enrolled in each group. In Part 2, very slow acetylators with NAT2 activity (ratio 1, Example 15a) below 0.06 were excluded from participation in the study. In each part of the study, subjects were assessed for PK, safety, and tolerability and all doses were administered within 30 min of ingestion of a meal or a snack.
Part 2, Group 1: Four sentinel subjects were selected after determining their acetylator status. Two were fast acetylators and two were slow acetylators. All four were dosed on Day 1 with 4 oral doses of 20 mg of 34-DAP phosphate (given at 4-hour dosing intervals). On Days […] and 2, safety and tolerability data was collected. Subjects left the clinic on Day 2. The safety and tolerability data collected for these 4 sentinel subjects were reviewed. The safety and tolerability results of Days 1 and 2 for these subjects were acceptable and thus Part 2 Group 2 was commenced. Minimally acceptable safety was defined as the absence of clinical seizure activity. Subjects in Group 1 returned to the clinic for their follow-up assessments 2-4 days following their last dose.
Each subject was given a final morning dose of 20 mg 3,4-DAP phosphate on Day 4. […]

[1] = Day 1, Dose 1, fast acetylators, 20 mg QID
[2] = Day 1, Dose 1, slow acetylators, 20 mg QID
[3] = Day 1, Dose 2, fast acetylators, 20 mg QID
[4] = Day 1, Dose 2, slow acetylators, 20 mg QID
[5] = Day 1, Dose 3, fast acetylators, 20 mg QID
[6] = Day 1, Dose 3, slow acetylators, 20 mg QID
[7] = Day 1, Dose 4, fast acetylators, 20 mg QID
[8] = Day 1, Dose 4, slow acetylators, 20 mg QID
[9] = Day 3, Dose 1, fast acetylators, 20 mg QID
[10] = Day 3, Dose 1, slow acetylators, 20 mg QID
[11] = Day 3, Dose 2, fast acetylators, 20 mg QID
[12] = Day 3, Dose 2, slow acetylators, 20 mg QID
[13] = Day 3, Dose 3, fast acetylators, 20 mg QID
[14] = Day 3, Dose 3, slow acetylators, 20 mg QID
[15] = Day 3, Dose 4, fast acetylators, 20 mg QID
[16] = Day 3, Dose 4, slow acetylators, 20 mg QID
[17] = Day 4, 20 mg single dose, fast acetylators
[18] = Day 4, 20 mg single dose, slow acetylators

## Nc1ccncc1N [3,4-DAP, 3,4-diaminopyridine]
[1]
  Mean CL/F: 898 L/h
  Tmax: 0.809 h
  Vd/F: 1330 L
  half-life: 1.12 h
[2]
  Mean CL/F: 152 L/h
  Tmax: 1.12 h
  Vd/F: 299 L
  half-life: 1.39 h
[3]
  Mean CL/F: 757 L/h
  Tmax: 1.07 h
  Vd/F: 1340 L
  half-life: 1.31 h
[4]
  Mean CL/F: 107 L/h
  Tmax: 1.14 h
  Vd/F: 293 L
  half-life: 1.93 h
[5]
  Mean CL/F: 879 L/h
  Tmax: 0.583 h
  Vd/F: 1720 L
  half-life: 1.3 h
[6]
  Mean CL/F: 117 L/h
  Tmax: 0.857 h
  Vd/F: 269 L
  half-life: 1.59 h
[7]
  Mean CL/F: 885 L/h
  Tmax: 0.643 h
  Vd/F: 1730 L
  half-life: 1.49 h
[8]
  Mean CL/F: 101 L/h
  Tmax: 1.29 h
  Vd/F: 338 L
  half-life: 2.52 h
[9]
  Mean CL/F: 973 L/h
  Tmax: 0.8 h
  Vd/F: 1390 L
  half-life: 1.07 h
[10]
  Mean CL/F: 124 L/h
  Tmax: 1 h
  Vd/F: 283 L
  half-life: 1.6 h
[11]
  Mean CL/F: 607 L/h
  Tmax: 0.9 h
  Vd/F: 1110 L
  half-life: 1.34 h
[12]
  Mean CL/F: 92.9 L/h
  Tmax: 1 h
  Vd/F: 260 L
  half-life: 1.97 h
[13]
  Mean CL/F: 817 L/h
  Tmax: 0.532 h
  Vd/F: 2200 L
  half-life: 1.73 h
[14]
  Mean CL/F: 103 L/h
  Tmax: 0.8 h
  Vd/F: 241 L
  half-life: 1.63 h
[15]
  Mean CL/F: 795 L/h
  Tmax: 0.8 h
  Vd/F: 1870 L
  half-life: 1.82 h
[16]
  Mean CL/F: 73.2 L/h
  Tmax: 0.6 h
  Vd/F: 376 L
  half-life: 3.56 h
[17]
  Mean CL/F: 673 L/h
  Tmax: 0.9 h
  Vd/F: 1770 L
  half-life: 1.95 h
[18]
  Mean CL/F: 108 L/h
  Tmax: 1.2 h
  Vd/F: 486 L
  half-life: 3.24 h
Day 1, Dose 1, fast acetylators, 20 mg QID, read-out: Mean AUC0-4
  AUC(0-t): 23.5 ng·h/mL
Day 1, Dose 1, fast acetylators, 20 mg QID, read-out: Mean Cmax
  Cmax: 24.4 ng/mL
Day 1, Dose 1, slow acetylators, 20 mg QID, read-out: Mean AUC0-4
  AUC(0-t): 115 ng·h/mL
Day 1, Dose 1, slow acetylators, 20 mg QID, read-out: Mean Cmax
  Cmax: 74.8 ng/mL
Day 1, Dose 1-4, fast acetylators, 20 mg QID, read-out: Mean AUC0-24
  AUC(0-t): 97.9 ng·h/mL
Day 1, Dose 1-4, slow acetylators, 20 mg QID, read-out: Mean AUC0-24
  AUC(0-t): 630 ng·h/mL
Day 1, Dose 2, fast acetylators, 20 mg QID, read-out: Mean AUC0-4
  AUC(0-t): 22.5 ng·h/mL
Day 1, Dose 2, fast acetylators, 20 mg QID, read-out: Mean Cmax
  Cmax: 13.3 ng/mL
Day 1, Dose 2, slow acetylators, 20 mg QID, read-out: Mean AUC0-4
  AUC(0-t): 152 ng·h/mL
Day 1, Dose 2, slow acetylators, 20 mg QID, read-out: Mean Cmax
  Cmax: 83.7 ng/mL
Day 1, Dose 3, fast acetylators, 20 mg QID, read-out: Mean AUC0-4
  AUC(0-t): 24.1 ng·h/mL
Day 1, Dose 3, fast acetylators, 20 mg QID, read-out: Mean Cmax
  Cmax: 16.8 ng/mL
Day 1, Dose 3, slow acetylators, 20 mg QID, read-out: Mean AUC0-4
  AUC(0-t): 140 ng·h/mL
Day 1, Dose 3, slow acetylators, 20 mg QID, read-out: Mean Cmax
  Cmax: 72.2 ng/mL
Day 1, Dose 4, fast acetylators, 20 mg QID, read-out: Mean AUC0-4
  AUC(0-t): 23.7 ng·h/mL
Day 1, Dose 4, fast acetylators, 20 mg QID, read-out: Mean Cmax
  Cmax: 16.4 ng/mL
Day 1, Dose 4, slow acetylators, 20 mg QID, read-out: Mean AUC0-4
  AUC(0-t): 145 ng·h/mL
Day 1, Dose 4, slow acetylators, 20 mg QID, read-out: Mean Cmax
  Cmax: 67.1 ng/mL
Day 3, Dose 1, fast acetylators, 20 mg QID, read-out: Mean AUC0-4
  AUC(0-t): 24.9 ng·h/mL
Day 3, Dose 1, fast acetylators, 20 mg QID, read-out: Mean Cmax
  Cmax: 24 ng/mL
Day 3, Dose 1, slow acetylators, 20 mg QID, read-out: Mean AUC0-4
  AUC(0-t): 130 ng·h/mL
Day 3, Dose 1, slow acetylators, 20 mg QID, read-out: Mean Cmax
  Cmax: 81.2 ng/mL
Day 3, Dose 1-4, fast acetylators, 20 mg QID, read-out: Mean AUC0-24
  AUC(0-t): 111 ng·h/mL
Day 3, Dose 1-4, slow acetylators, 20 mg QID, read-out: Mean AUC0-24
  AUC(0-t): 701 ng·h/mL
Day 3, Dose 2, fast acetylators, 20 mg QID, read-out: Mean AUC0-4
  AUC(0-t): 28.5 ng·h/mL
Day 3, Dose 2, fast acetylators, 20 mg QID, read-out: Mean Cmax
  Cmax: 18.7 ng/mL
Day 3, Dose 2, slow acetylators, 20 mg QID, read-out: Mean AUC0-4
  AUC(0-t): 164 ng·h/mL
Day 3, Dose 2, slow acetylators, 20 mg QID, read-out: Mean Cmax
  Cmax: 96.1 ng/mL
Day 3, Dose 3, fast acetylators, 20 mg QID, read-out: Mean AUC0-4
  AUC(0-t): 25.8 ng·h/mL
Day 3, Dose 3, fast acetylators, 20 mg QID, read-out: Mean Cmax
  Cmax: 21.9 ng/mL
Day 3, Dose 3, slow acetylators, 20 mg QID, read-out: Mean AUC0-4
  AUC(0-t): 156 ng·h/mL
Day 3, Dose 3, slow acetylators, 20 mg QID, read-out: Mean Cmax
  Cmax: 80.9 ng/mL
Day 3, Dose 4, fast acetylators, 20 mg QID, read-out: Mean AUC0-4
  AUC(0-t): 25.1 ng·h/mL
Day 3, Dose 4, fast acetylators, 20 mg QID, read-out: Mean Cmax
  Cmax: 16.2 ng/mL
Day 3, Dose 4, slow acetylators, 20 mg QID, read-out: Mean AUC0-4
  AUC(0-t): 168 ng·h/mL
Day 3, Dose 4, slow acetylators, 20 mg QID, read-out: Mean Cmax
  Cmax: 97.1 ng/mL
Day 4, 20 mg single dose, fast acetylators, read-out: Mean AUC0-4
  AUC(0-t): 22.6 ng·h/mL
Day 4, 20 mg single dose, fast acetylators, read-out: Mean AUC0-24
  AUC(0-t): 25.9 ng·h/mL
Day 4, 20 mg single dose, fast acetylators, read-out: Mean Cmax
  Cmax: 13.6 ng/mL
Day 4, 20 mg single dose, slow acetylators, read-out: Mean AUC0-4
  AUC(0-t): 133 ng·h/mL
Day 4, 20 mg single dose, slow acetylators, read-out: Mean AUC0-24
  AUC(0-t): 186 ng·h/mL
Day 4, 20 mg single dose, slow acetylators, read-out: Mean Cmax
  Cmax: 72.5 ng/mL
Days 1-4, 20 mg QID, fast acetylators, read-out: plasma mean Cmax values, range
  Cmax: 13.3 to 24.4 ng/mL
Days 1-4, 20 mg QID, slow acetylators, read-out: plasma mean Cmax values, range
  Cmax: 67.1 to 97.1 ng/mL

Source: patent publication US11274332B2, “Methods of administering 3,4-diaminopyridine” (SERB SA, priority 2011, dated 2022)
